Measured values: US20240390340A1 (INCYTE CORPORATION, priority 2023, published 2024)
Read-outs that look alike come from different tables or passages of the source.

Columns and labels:
KRAS G12D = KRAS G12D (Homo sapiens, UniProt P01116, G12D); experiment: GDP-GTP exchange assay (bodipy-GDP/GppNHp, SOS1), KRAS G12D; assay type: biochemical
KRAS G12V = KRAS G12V (Homo sapiens, UniProt P01116, G12V); experiment: GDP-GTP exchange assay (bodipy-GDP/GppNHp, SOS1), KRAS G12V; assay type: biochemical
[1] = bodipy-loaded KRAS G12D 2.5 nM, 4 h pre-incubation, value for the most potent isomer quoted for certain compounds, read-out: G12D (KRAS G12D exchange assay IC50)
[2] = KRAS G12V mutant, value for the most potent isomer quoted for certain compounds, read-out: G12V (KRAS G12V exchange assay IC50)

Sequence of KRAS G12D (P01116 1-188 isoform P01116-2 G12D): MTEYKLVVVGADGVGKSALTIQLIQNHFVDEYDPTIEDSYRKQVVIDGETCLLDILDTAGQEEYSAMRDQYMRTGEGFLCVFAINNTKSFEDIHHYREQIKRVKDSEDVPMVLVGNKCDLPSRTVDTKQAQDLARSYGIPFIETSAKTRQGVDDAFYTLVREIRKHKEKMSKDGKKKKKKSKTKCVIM
Sequence of KRAS G12V (P01116 1-188 isoform P01116-2 G12V): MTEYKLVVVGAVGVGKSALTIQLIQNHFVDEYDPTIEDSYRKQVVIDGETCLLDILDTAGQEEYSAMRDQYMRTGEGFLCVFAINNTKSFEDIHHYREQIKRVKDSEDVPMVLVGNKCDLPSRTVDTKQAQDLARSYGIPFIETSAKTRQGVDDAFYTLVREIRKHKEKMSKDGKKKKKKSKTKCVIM

IC50 (KRAS G12D; [1]) | IC50 (KRAS G12V; [2]) | IC50 (KRAS G12D; Table H, column G12D, for compounds isolated as several atropisomers/diastereoisomers the value for the most potent isomer is quoted, read-out: KRAS G12D exchange assay IC50) | IC50 (KRAS G12V; Table H, column G12V, for compounds isolated as several atropisomers/diastereoisomers the value for the most potent isomer is quoted, read-out: KRAS G12V exchange assay IC50) | Compound
≤ 100 nM | ≤ 100 nM | – | – | Cc1nc2c(F)c(-c3cccc(Cl)c3Cl)c(CCC#N)cc2c2c1cc([C@H]1C[C@H](OCc3nnn(C)c3C)CN1C(=O)C1CC1)n2[C@H]1[C@H]2CN[C@@H]1C2 [Example 234]
≤ 100 nM | ≤ 100 nM | – | – | Cc1ncc(CO[C@H]2C[C@H](c3cc4c(C)nc5c(F)c(-c6cccc(Cl)c6Cl)c(CCC#N)cc5c4n3[C@H]3[C@H]4CN[C@@H]3C4)N(C(=O)C3CC3)C2)s1 [Example 90]
≤ 100 nM | ≤ 100 nM | – | – | Cc1nc2c(F)c(-c3cccc(Cl)c3Cl)c(CCC#N)cc2c2c1cc([C@H]1C[C@H](OCc3cccnc3)CN1C(=O)C1CC1)n2[C@H]1[C@H]2CN[C@@H]1C2 [Example 95]
≤ 100 nM | ≤ 100 nM | – | – | CC(=O)NC(C)(C)c1cn([C@H]2C[C@H](c3cc4c(C)nc5c(F)c(-c6cccc(Cl)c6Cl)c(CCC#N)cc5c4n3[C@H]3[C@H]4CN[C@@H]3C4)N(C(=O)C3CC3)C2)nn1 [Example 272]
≤ 100 nM | ≤ 100 nM | – | – | Cc1nc2c(F)c(-c3cccc(Cl)c3Cl)c(CCC#N)cc2c2c1cc([C@H]1C[C@H](OC[C@@H]3CCCN3)CN1C(=O)C1CC1)n2[C@H]1[C@H]2CN[C@@H]1C2 [Example 449]
100 to 1000 nM | ≤ 100 nM | – | – | N#CCCc1cc2c(nc(C3CC4CCCC3N4)c3cc([C@H]4C[C@H](OCc5c(F)cccc5F)CN4C(=O)C4CC4)n([C@H]4[C@H]5CN[C@@H]4C5)c32)c(F)c1-c1cccc(Cl)c1Cl (stereo partly shown) [Example 246]
≤ 100 nM | ≤ 100 nM | – | – | CO[C@H]1CC[C@@H](O[C@H]2C[C@H](c3cc4c(C)nc5c(F)c(-c6cccc(Cl)c6Cl)c(CCC#N)cc5c4n3[C@H]3[C@H]4CN[C@@H]3C4)N(C(=O)C3CC3)C2)C1 [Example 439]
≤ 100 nM | ≤ 100 nM | – | – | Cc1nc2c(F)c(-c3cccc(Cl)c3Cl)c(CCC#N)cc2c2c1cc([C@H]1C[C@H](Oc3ccc(F)cc3)CN1C(=O)C1CC1)n2[C@H]1[C@H]2CN[C@@H]1C2 [Example 120]
≤ 100 nM | ≤ 100 nM | – | – | Cc1nc2c(F)c(-c3cccc(Cl)c3Cl)c(CCC#N)cc2c2c1cc([C@H]1C[C@H](n3ncc(C#N)n3)CN1C(=O)C1CC1)n2[C@H]1[C@H]2CN[C@@H]1C2 [Example 346]
≤ 100 nM | ≤ 100 nM | – | – | Cc1nc2c(F)c(-c3cccc(Cl)c3Cl)c(CCC#N)cc2c2c1cc([C@H]1C[C@H](Oc3ccnc(C#N)c3)CN1C(=O)C1CC1)n2[C@H]1[C@H]2CN[C@@H]1C2 [Example 198]
≤ 100 nM | ≤ 100 nM | – | – | Cc1nc2c(F)c(-c3cccc(Cl)c3Cl)c(CCC#N)cc2c2c1cc([C@H]1C[C@H](OCC3(C#N)CC3)CN1C(=O)C1CC1)n2[C@H]1[C@H]2CN[C@@H]1C2 [Example 338]
≤ 100 nM | ≤ 100 nM | – | – | COc1cccc(CO[C@H]2C[C@H](c3cc4c(C)nc5c(F)c(-c6cccc(Cl)c6Cl)c(CCC#N)cc5c4n3[C@H]3[C@H]4CN[C@@H]3C4)N(C(=O)C3CC3)C2)n1 [Example 267]
≤ 100 nM | ≤ 100 nM | – | – | Cc1cccc(C)c1CO[C@H]1C[C@H](c2cc3c(C)nc4c(F)c(-c5cccc(Cl)c5Cl)c(CCC#N)cc4c3n2[C@H]2[C@H]3CN[C@@H]2C3)N(C(=O)C2CC2)C1 [Example 113]
≤ 100 nM | ≤ 100 nM | – | – | Cc1nc2c(F)c(-c3cccc(Cl)c3Cl)c(CCC#N)cc2c2c1cc([C@H]1C[C@H](OCc3cc(F)ccc3C#N)CN1C(=O)C1CC1)n2[C@H]1[C@H]2CN[C@@H]1C2 [Example 157]
≤ 100 nM | ≤ 100 nM | – | – | Cc1nc2c(F)c(-c3cccc(Cl)c3Cl)c(CCC#N)cc2c2c1cc([C@H]1C[C@H](OCC3CCCCC3)CN1C(=O)C1CC1)n2[C@H]1[C@H]2CN[C@@H]1C2 [Example 86]
≤ 100 nM | ≤ 100 nM | – | – | COc1cccc(CO[C@H]2C[C@H](c3cc4c(C)nc5c(F)c(-c6cccc(Cl)c6Cl)c(CCC#N)cc5c4n3[C@H]3[C@H]4CN[C@@H]3C4)N(C(=O)C3CC3)C2)c1F [Example 154]
≤ 100 nM | ≤ 100 nM | – | – | COC(=O)c1ccc(-c2nnn([C@H]3C[C@H](c4cc5c(C)nc6c(F)c(-c7cccc(Cl)c7Cl)c(CCC#N)cc6c5n4[C@H]4[C@H]5CN[C@@H]4C5)N(C(=O)C4CC4)C3)n2)cc1 [Example 435]
≤ 100 nM | ≤ 100 nM | – | – | Cc1nc2c(F)c(-c3cccc(Cl)c3Cl)c(CCC#N)cc2c2c1cc([C@H]1C[C@H](OC[C@H]3CCOC3)CN1C(=O)C1CC1)n2[C@H]1[C@H]2CN[C@@H]1C2 [Example 372]
≤ 100 nM | ≤ 100 nM | – | – | CC(=O)N(C)Cc1cn([C@H]2C[C@H](c3cc4c(C)nc5c(F)c(-c6cccc(Cl)c6Cl)c(CCC#N)cc5c4n3[C@H]3[C@H]4CN[C@@H]3C4)N(C(=O)C3CC3)C2)nn1 [Example 271]

IC50 (KRAS G12D; [1]) | IC50 (KRAS G12V; [2]) | IC50 (KRAS G12D; Table H, column G12D, for compounds isolated as several atropisomers/diastereoisomers the value for the most potent isomer is quoted, read-out: KRAS G12D exchange assay IC50) | IC50 (KRAS G12V; Table H, column G12V, for compounds isolated as several atropisomers/diastereoisomers the value for the most potent isomer is quoted, read-out: KRAS G12V exchange assay IC50) | Compound
≤ 100 nM | ≤ 100 nM | – | – | Cc1nc2c(F)c(-c3cccc(Cl)c3Cl)c(CCC#N)cc2c2c1cc([C@H]1C[C@H](Oc3c(F)cc(C#N)cc3F)CN1C(=O)C1CC1)n2[C@H]1[C@H]2CN[C@@H]1C2 [Example 293]
– | – | ≤ 100 nM | ≤ 100 nM | Cc1nc2c(F)c(-c3cccc(Cl)c3Cl)c(CCC#N)cc2c2c1cc([C@H]1C[C@H](OC(F)(F)c3ccccc3)CN1C(=O)C1CC1)n2[C@H]1[C@H]2CN[C@@H]1C2 [Example 79, 3-(1-((1R,4R,5S)-2-Azabicyclo[2.1.1]hexan-5-yl)-2-((2R,4S)-1-(cyclopropanecarbonyl)-4-(difluoro(phenyl)methoxy)pyrrolidin-2-yl)-7-(2,3-dichlorophenyl)-6-fluoro-4-methyl-1H-pyrrolo[3,2-c]quinolin-8-yl)propanenitrile]
≤ 100 nM | ≤ 100 nM | – | – | Cc1ncn([C@H]2C[C@H](c3cc4c(C)nc5c(F)c(-c6cccc(Cl)c6Cl)c(CCC#N)cc5c4n3[C@H]3[C@H]4CN[C@@H]3C4)N(C(=O)C3CC3)C2)n1 [Example 277]
≤ 100 nM | ≤ 100 nM | – | – | Cc1nc2c(F)c(-c3cccc(Cl)c3Cl)c(CCC#N)cc2c2c1cc([C@H]1C[C@H](Oc3ccccc3C#N)CN1C(=O)C1CC1)n2[C@H]1[C@H]2CN[C@@H]1C2 [Example 249]
≤ 100 nM | ≤ 100 nM | – | – | Cc1nc2c(F)c(-c3cccc(Cl)c3Cl)c(CCC#N)cc2c2c1cc([C@H]1C[C@H](OC[C@H]3C[C@@H](C#N)C3)CN1C(=O)C1CC1)n2[C@H]1[C@H]2CN[C@@H]1C2 [Example 403]
≤ 100 nM | ≤ 100 nM | – | – | Cc1nc2c(F)c(-c3cccc(Cl)c3Cl)c(CCC#N)cc2c2c1cc([C@H]1C[C@H](OCc3cccnc3Cl)CN1C(=O)C1CC1)n2[C@H]1[C@H]2CN[C@@H]1C2 [Example 253]
≤ 100 nM | ≤ 100 nM | – | – | Cc1csnc1CO[C@H]1C[C@H](c2cc3c(C)nc4c(F)c(-c5cccc(Cl)c5Cl)c(CCC#N)cc4c3n2[C@H]2[C@H]3CN[C@@H]2C3)N(C(=O)C2CC2)[C@@H]1C [Example 232]
100 to 1000 nM | ≤ 100 nM | – | – | N#CCCc1cc2c(nc(-c3ccc(N4CCCC4=O)nc3)c3cc([C@H]4C[C@H](OCc5c(F)cccc5F)CN4C(=O)C4CC4)n([C@H]4[C@H]5CN[C@@H]4C5)c32)c(F)c1-c1cccc(Cl)c1Cl [Example 207]
≤ 100 nM | ≤ 100 nM | – | – | Cc1nc2c(F)c(-c3cccc(Cl)c3Cl)c(CCC#N)cc2c2c1cc([C@H]1C[C@H](Oc3cnccn3)CN1C(=O)C1CC1)n2[C@H]1[C@H]2CN[C@@H]1C2 [Example 137]
≤ 100 nM | ≤ 100 nM | – | – | Cc1nc2c(F)c(-c3cccc(Cl)c3Cl)c(CCC#N)cc2c2c1cc([C@H]1C[C@H](n3cncn3)CN1C(=O)C1CC1)n2[C@H]1[C@H]2CN[C@@H]1C2 [Example 276]
≤ 100 nM | ≤ 100 nM | – | – | Cc1nc2c(F)c(-c3cccc(Cl)c3Cl)c(CCC#N)cc2c2c1cc([C@H]1C[C@H](n3cc(C4CCCO4)nn3)CN1C(=O)C1CC1)n2[C@H]1C2CNC1C2 (stereo partly shown) [Example 180]
≤ 100 nM | ≤ 100 nM | – | – | Cc1nc2c(F)c(-c3cccc(Cl)c3Cl)c(CCC#N)cc2c2c1cc([C@H]1C[C@H](OCc3cnsc3)CN1C(=O)C1CC1)n2[C@H]1[C@H]2CN[C@@H]1C2 [Example 110]
100 to 1000 nM | ≤ 100 nM | – | – | Cc1nc2c(F)c(-c3cccc(Cl)c3Cl)c(CCC#N)cc2c2c1cc([C@H]1C[C@H](Oc3cccc(C#N)c3)[C@@H](C)N1C(=O)C1CC1)n2[C@H]1[C@H]2CN[C@@H]1C2 [Example 213]
≤ 100 nM | ≤ 100 nM | – | – | Cc1nc2c(F)c(-c3cccc(Cl)c3Cl)c(CCC#N)cc2c2c1cc([C@H]1C[C@H](OCC3CCOCC3)CN1C(=O)C1CC1)n2[C@H]1[C@H]2CN[C@@H]1C2 [Example 413]
≤ 100 nM | ≤ 100 nM | – | – | Cc1nc2c(F)c(-c3cccc(Cl)c3Cl)c(CCC#N)cc2c2c1cc([C@H]1C[C@H](Oc3ccn(CC(F)(F)F)n3)CN1C(=O)C1CC1)n2[C@H]1[C@H]2CN[C@@H]1C2 [Example 411]
≤ 100 nM | ≤ 100 nM | – | – | Cc1nc2c(F)c(-c3cccc(Cl)c3Cl)c(CCC#N)cc2c2c1cc([C@H]1C[C@H](n3cc(C4CNC(=O)C4)nn3)CN1C(=O)C1CC1)n2[C@H]1[C@H]2CN[C@@H]1C2 (stereo partly shown) [Example 273]
≤ 100 nM | ≤ 100 nM | – | – | COC(=O)c1cnn([C@H]2C[C@H](c3cc4c(C)nc5c(F)c(-c6cccc(Cl)c6Cl)c(CCC#N)cc5c4n3[C@H]3[C@H]4CN[C@@H]3C4)N(C(=O)C3CC3)C2)c1 [Example 353]
≤ 100 nM | ≤ 100 nM | – | – | COc1ncc(Br)cc1O[C@H]1C[C@H](c2cc3c(C)nc4c(F)c(-c5cccc(Cl)c5Cl)c(CCC#N)cc4c3n2[C@H]2[C@H]3CN[C@@H]2C3)N(C(=O)C2CC2)C1 [Example 450]
≤ 100 nM | ≤ 100 nM | – | – | [2H]C([2H])(O[C@H]1C[C@H](c2cc3c(C)nc4c(F)c(-c5cccc(Cl)c5Cl)c(CCC#N)cc4c3n2[C@H]2[C@H]3CN[C@@H]2C3)N(C(=O)C2CC2)C1)c1nccs1 [Example 362]
